Activity calls are given as the source filed them. The rule behind the calls is not given here.
Target: G-protein coupled receptor 151 (Homo sapiens) (UniProt Q8TDV0)
Assay: GPR151 activator potency, dose response, cell-based (AID 1508610)
Conditions: cell-based GPR151 activation reporter

Chain of G-protein coupled receptor 151 (Homo sapiens) (Q8TDV0 whole entry, looked up): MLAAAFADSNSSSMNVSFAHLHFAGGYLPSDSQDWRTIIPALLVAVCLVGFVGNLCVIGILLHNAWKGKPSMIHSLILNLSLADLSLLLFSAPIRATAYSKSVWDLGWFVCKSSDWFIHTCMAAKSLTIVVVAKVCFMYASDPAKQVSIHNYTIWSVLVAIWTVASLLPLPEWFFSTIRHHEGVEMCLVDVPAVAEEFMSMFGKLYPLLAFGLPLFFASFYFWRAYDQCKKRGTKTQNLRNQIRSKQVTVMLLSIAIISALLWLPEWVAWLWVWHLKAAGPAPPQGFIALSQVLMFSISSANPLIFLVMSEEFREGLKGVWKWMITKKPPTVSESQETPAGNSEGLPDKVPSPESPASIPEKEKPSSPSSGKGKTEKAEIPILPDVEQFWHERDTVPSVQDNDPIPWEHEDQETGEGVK

Compound	EC50
O=C(NC1CC1)c1ccc2nc(-c3csc4ccccc34)sc2c1	> 28.1 µM (inactive)
Cc1ccn(CCC(=O)NCC2Cc3cc(-c4cnccn4)cc(Cl)c3O2)n1 (configuration not stated)	> 28 µM (inactive)
COc1cccc2oc(-c3ccccc3)cc(=O)c12	> 28 µM (inactive)
COc1ccc(C[C@H](N)C(=O)N[C@@H]2[C@@H](CO)OC(n3cnc4c(N(C)C)ncnc43)[C@@H]2O)cc1 (some centres not stated)	> 28 µM (inactive)
O=C(NCc1ccc(F)cc1)C(=O)Nc1cccc(Cl)c1	> 28 µM (inactive)
Clc1ccccc1/C=C/c1nc(-c2ccccn2)no1	> 28 µM (inactive)
CCOc1ccc(C(=O)N2CCC(c3ncncc3-c3ccncc3)CC2)o1	> 28 µM (inactive)
CCC(C(=O)OC)n1cnc2scc(-c3cccc([N+](=O)[O-])c3)c2c1=O (configuration not stated)	> 28 µM (inactive)
COc1cc(C2Nc3ccccc3NC3=C2C(=O)CC(c2ccc4c(c2)OCO4)C3)ccc1OC(C)=O (configuration not stated)	> 23.3 µM (inactive)
COc1ccc(-c2ccc(C(N)=O)s2)cn1	> 28.1 µM (inactive)
O=C1N[C@@H](Cc2ccc(Cl)cc2)C(=O)N2CCN(C(=O)c3cc(Cl)cc(Cl)c3)C[C@H]12	> 28 µM (inactive)
O=C(O)c1ccc(/C=C2\SC(=S)N(CCS(=O)(=O)O)C2=O)cc1	> 28.5 µM (inactive)
CC(=O)Oc1ccccc1C(=O)Nc1ncc([N+](=O)[O-])s1	> 28 µM (inactive)
COc1ccc(C2C3C(C)=NN=C3CC(C)(O)C2C(C)=O)cc1 (configuration not stated)	inactive
CC(C)=CCN1CCN(Cc2sccc2C)CC1CCO (configuration not stated)	> 28 µM (inactive)
Cc1cc2nc3c(=O)n(C4CCCCCC4)c(=O)[nH]c3nc2cc1N	> 28 µM (inactive)
CC[C@@H](C(=O)C(C)[C@@H](O)[C@H](C)CCc1ccc(C)c(O)c1C(=O)O)C1OC(CC)(C2CC[C@](O)(CC)[C@H](C)O2)C[C@@H]1C (some centres not stated)	inactive
O=C(O)c1cccc(COc2ccc(CO)cc2Cl)c1	> 28 µM (inactive)
O=C(Cc1cn(-c2ccc(Cl)nn2)c2ccccc12)NCCN1CCOCC1	> 28.1 µM (inactive)
COc1cccc(-c2nc(-c3ccccn3)no2)c1	> 37.5 µM (inactive)
O=C(O)CCC(NCC(O)Cn1c2ccccc2c2ccccc21)C(=O)O (configuration not stated)	> 28.7 µM (inactive)
COC(=O)c1c(NC(=O)c2cc(-c3ccc(CC(C)C)cc3)nc3ccccc23)sc(C)c1-c1ccccc1	> 23.4 µM (inactive)
COc1ccc(-c2ccc(C(=O)Nc3ccc(NC(C)=O)cc3)s2)cn1	> 28.2 µM (inactive)
Cn1c(/C=C/c2ccccc2)nc2ccccc21	> 37 µM (inactive)
[O-]/[N+](=C\c1ccncc1)c1ccc(Cl)cc1	> 28.9 µM (inactive)

Compound	EC50
COc1ccc(-n2nc3c(c2NC(=O)CCC2CCCC2)CS(=O)(=O)C3)cc1	> 28.2 µM (inactive)
COc1ccc(-c2ccc(C(=O)NCc3cccnc3)s2)cc1	> 28.2 µM (inactive)
Cn1c(=O)[nH]c2nnc(-c3ccc(F)cc3)nc2c1=O	> 28 µM (inactive)
Cn1cccc1C(=O)OCC(=O)NC(=O)NCc1ccccc1	> 28.4 µM (inactive)
CC1=NCCc2c1[nH]c1cc(O)ccc21	> 28 µM (inactive)
CN1CCN(c2ccc(/C=C(\C#N)C(N)=O)cc2[N+](=O)[O-])CC1	> 28 µM (inactive)
C1=Nc2ccccc2SC(c2cccnc2)=C1	> 28.2 µM (inactive)
CCC[C@@H]1NC(=O)[C@@H]2C[C@H](NCc3cc(C)ccc3F)CN2C1=O	> 28 µM (inactive)
COc1ccc(NC(=O)CCC(=O)Oc2ccc(C)cc2)cc1	> 28 µM (inactive)
CCOC(=O)C1=C(C)N=c2s/c(=C\c3ccc(-c4ccccc4C(=O)O)o3)c(=O)n2C1c1ccccc1OC (configuration not stated)	> 25.1 µM (inactive)
C=CCN(c1ccc(C(=O)Nc2ccc(Cl)cc2)cc1)S(C)(=O)=O	> 28 µM (inactive)
Cc1ccc(NC(=O)/C(=C/c2cccc([N+](=O)[O-])c2)NC(=O)c2cccs2)c(Br)c1	> 18.7 µM (inactive)
COc1ccc(OCc2cc(C(=O)N(C)Cc3ccncn3)no2)c(Cl)c1	> 28 µM (inactive)
COc1ccc(C(=O)/C=C\N2CCOCC2)cc1	> 28 µM (inactive)
COc1ccc(CCNc2ccnc(Nc3ccc(N4CCOCC4)cc3)n2)cc1	inactive
COc1cccc(Nc2nc(Nc3cc(C)ccc3C)nc(N3CCOCC3)n2)c1	> 26.2 µM (inactive)
O=C(NCCO)c1ccc(-c2ccc(N3CCOCC3)nc2)s1	> 27 µM (inactive)
CCOC(=O)c1cc(C)n(CCc2ccccc2)c1C	> 39.1 µM (inactive)
Cc1nc(/C=C/c2ccc(Cl)cc2)sc1C(=O)O	> 32 µM (inactive)
COc1cccc(-c2ccc(SCC(=O)Nc3ccc4c(c3)OCCO4)nn2)c1	> 28.7 µM (inactive)
COc1ccc(CCNC(=O)c2sc3nc(C)nc(N4CCCCC4)c3c2C)cc1OC	> 27.6 µM (inactive)
CCc1ccccc1N(CC(=O)Nc1ccccc1Cl)S(C)(=O)=O	0.00153 µM
O=C(Nc1nc(-c2ccc(I)cc2)cs1)c1ccc(Cl)s1	> 24.9 µM (inactive)
CC(=O)OC(C(=O)NCc1ccco1)c1ccncc1 (configuration not stated)	> 28 µM (inactive)
O=C(Nc1ccc(Oc2cccc(Oc3ccc(NC(=O)c4ccccc4F)cc3)c2)cc1)c1ccccc1F	> 14.8 µM (inactive)

Compound	EC50
Cn1c(=O)c(=O)n(C)c2cc(S(=O)(=O)N3CCN(C(=O)c4ccco4)CC3)ccc21	> 28 µM (inactive)
Cc1cc(-n2c(SCC(=O)NCc3ccco3)nc3n[nH]c(C)c3c2=N)ccc1Cl	> 24.4 µM (inactive)
Oc1csc(Cc2nc(-c3ccccc3F)cs2)n1	> 28.7 µM (inactive)
O=S(=O)(O)c1ccc2nc(-c3ccccc3)[nH]c2c1	> 28 µM (inactive)
O=Cc1cccc(OCc2ccc(C(=O)O)cc2)c1	> 28 µM (inactive)
CCCN1C(=O)C[n+]2ccccc2C1C(=O)Nc1ccccc1C (configuration not stated)	> 28 µM (inactive)
CC(C)C[C@@H]1NC(=O)[C@@H]2C[C@H](NC(=O)Nc3cccc(C(F)(F)F)c3)CN2C1=O	> 28 µM (inactive)
COc1ccccc1N=C1SC(CC(=O)Nc2cccc([N+](=O)[O-])c2)C(=O)N1C (configuration not stated)	> 28 µM (inactive)
CCSCCOC(=O)C1=C(C)NC(=O)NC1c1ccc(OC(F)(F)F)cc1 (configuration not stated)	> 22.5 µM (inactive)
CC(=O)c1ccc(OC(=O)c2cccc(Br)c2)cc1	> 25.9 µM (inactive)
CCC(C)c1ccccc1NC(=S)NC(C)=O (configuration not stated)	> 28 µM (inactive)
CCC(=O)Oc1ccc2cc(-c3ccc(OC)c(OC)c3)c(=O)oc2c1	> 28.5 µM (inactive)
Cn1c(=O)c2c(nc(NCCO)n2Cc2ccccc2F)n(C)c1=O	> 34.4 µM (inactive)
COc1ccc(/C=C/C(=O)Nc2ccccc2)cc1	> 32.6 µM (inactive)
CSc1ccc(/C=N/NC(=O)C[n+]2ccccc2)cc1	> 28 µM (inactive)
COc1cc(CNc2ccc3ncc(-c4cnn(C)c4)n3n2)cc(OC)c1OC	> 28 µM (inactive)
CCCOc1ccc(NC(=O)CC2C(=O)N(c3ccc(Cl)cc3)C(=S)N2Cc2ccncc2)cc1 (configuration not stated)	> 23.5 µM (inactive)
CCOC(=O)c1cc2c(c(CSc3nc4ccccc4c(=O)n3Cc3ccc4c(c3)OCO4)c1)OCOC2	> 21.4 µM (inactive)
CC[n+]1c(/C=C2\Sc3ccc(C)cc3N2CCO)ccc2ccccc21	inactive
CC(C)NC(=O)c1cnc2scc(-c3ccccc3)n2c1=O	> 28 µM (inactive)
CCCNC(=O)c1ccc(-c2ccc(N3CCOCC3)nc2)s1	> 28.1 µM (inactive)
CCN(CC)S(=O)(=O)c1ccc(C(=O)Nc2nnc(C(C)C)s2)cc1	> 23.9 µM (inactive)
O=C(Nc1ncc([N+](=O)[O-])s1)c1ccc(Cl)cc1Cl	> 27.3 µM (inactive)
CC(c1ccccc1)C1CC(=O)N(Cc2ccccc2)C1=O (configuration not stated)	> 32.4 µM (inactive)
CCCCN(CCNC(=O)Cn1ncc2c1-c1cc(C)ccc1OC2)Cc1ccco1	> 28 µM (inactive)

Compound	EC50
CC(=O)OCC1=C(C(=O)O)N2C(=O)[C@@H](NC(=O)Cc3cccs3)[C@H]2SC1	> 28 µM (inactive)
Fc1ccc(-c2cnc(N3CCC4(CC3)OCCO4)nc2)cc1	> 28 µM (inactive)
COc1cc(Nc2cc(-c3ccc(C(N)=O)cc3)nc(N)n2)cc(OC)c1OC	> 25.6 µM (inactive)
Cc1n[nH]c(C)c1S(=O)(=O)NCc1ccc(F)cc1	> 28 µM (inactive)
COc1ccc(N(CC(=O)Nc2ccccc2-c2ccccc2)S(C)(=O)=O)cc1	> 28 µM (inactive)
O=C(CCCC(=O)N/N=C/c1cccc([N+](=O)[O-])c1)N/N=C/c1cccc([N+](=O)[O-])c1	> 28 µM (inactive)
CSc1nccc(-c2cc(Cl)c3c(c2)CC(CNC(=O)c2ccoc2)O3)n1 (configuration not stated)	> 28 µM (inactive)
COc1ccc(-c2nc(Nc3ccccc3F)c3ccccc3n2)cc1OC	> 28.2 µM (inactive)
C/C(=N\NC(=O)Cn1nnc(-c2ccccc2)n1)c1nonc1C	> 28 µM (inactive)
N#Cc1nc2[nH]c(-c3ccccc3)cc(=O)n2c1C#N	> 30 µM (inactive)
COc1ccc(-c2nnc3sc(NC(=O)C(C)C)nn23)cc1OC	> 28 µM (inactive)
COc1ccc(Br)cc1C(=O)NCC1COc2ccccc2O1 (configuration not stated)	> 28 µM (inactive)
CCOc1ccc(NS(=O)(=O)c2ccc3c(c2)n(C)c(=O)n3C)cc1	> 28 µM (inactive)
Fc1ccc(CSc2ncn[nH]2)cc1	> 50.7 µM (inactive)
CCn1c(SCC(=O)c2ccccc2)nnc1C(C)C	> 28 µM (inactive)
C[C@H](O)[C@H]1NC(=O)[C@@H]2C[C@H](NCc3cccc(F)c3)CN2C1=O	> 28 µM (inactive)
CN1CCN(c2cc(-c3cn[nH]c3)ccc2NC(=O)Cc2cccc(Cl)c2)CC1	1.25 µM
COc1ccc(-c2ccc(C(=O)NCCc3ccc(O)cc3)s2)cc1	> 27.7 µM (inactive)
COC(=O)c1cc2c(N3CCC(Cc4ccccc4)CC3)ncnc2s1	> 27.4 µM (inactive)
O=C(NC1(C(F)(F)F)NC(=O)N(c2ccc(F)cc2)C1=O)c1ccncc1 (configuration not stated)	> 28 µM (inactive)
Cc1cc2nc(-c3cccnc3SCC(=O)NCc3ccco3)[nH]c2cc1C	> 28 µM (inactive)
N=c1sc2c(n1CC(=O)c1ccccc1)CCCC2	> 27 µM (inactive)
